Two compounds from PMC9776540, “Therapeutic Potential of a Water-Soluble Silver-Diclofenac Coordination Polymer on 3D Pancreatic Cancer Spheroids” (Journal of Medicinal Chemistry, 2022) can be followed below.

Data set [1] deals with A549. Description: MTT survival test, surviving fraction (Table S3). Format: cell-based, human. How it is done: (§1) 24, and 72 h. After each incubation time, the cells were washed with PBS. Then, fresh medium (supplemented with 10% FSB) was added, and the cells were incubated under standard conditions for another 24 h (6h + 24h, 24h + 24h, 72h + 24h). After this time, the MTT survival test was done. Surviving fraction given in % was estimated with relation to untreated cells. In the case of 6h + 24h and 24h + 24h approaches, the cells were seeded at 10 000 cells per well, while in the case of 72h + 24h at […]

Data set [2] deals with PANC-1. The experiment in a line: MTT survival test, surviving fraction (Table S3). It counts as cell-based, human. How it is done: as §1
(In general: Formazan colour is commonly taken as a measure of viable cells.)

For data set [3], the system named is MCF-7. The experiment in a line: MTT survival test, surviving fraction (Table S3). It counts as cell-based, human. How it is done: as §1
Data set [4] concerns HaCat. The experiment in a line: MTT survival test, surviving fraction (Table S3). Format: cell-based, human. How it is done: as §1
The test system of data set [5] is DU-145. The experiment in a line: MTT survival test, surviving fraction (Table S3). Format: cell-based, human. How it is done:
as §1

Data set [6] deals with human cell lines. The conditions noted are these: up to a concentration of 100 μM. How it is done:
(§2) MCF7 cell line (human breast adenocarcinoma, morphology: epithelial-like, ATCC: HTB-22), A549 cell […]
(§3) keratinocyte, morphology: epidermal, CSL Cell Lines Service GmbH); were cultured in Dulbecco’s Modified Eagle’s Medium (DMEM, Corning) with phenol red, supplemented with 10% fetal bovine serum (FBS) and with 1% streptomycin/penicillin. […]
(§4) from metastatic site: brain, ATCC: HTB-81) and MCR-5 cell line (primary line of human pulmonary […]
(§5) 10% fetal bovine serum (FBS). Cultures were incubated at 37 °C under a humidified atmosphere containing 5% CO2. Cells were transferred using a solution containing 0.05% trypsin and 0.5 mM EDTA.
(§6) All media and other ingredients were purchased from ALAB, Poland.
Cytotoxicity was assessed by MTT assay performed according the protocols described elsewhere.S1 In brief, 1×10^4 cells per well, seeded in 96-well flat bottom microtiter plate, were incubated with the tested compounds (in the appropriate media) at various range of concentrations for 24 h. […] After next 72 h cell viability was determined using the Hill equation (Origin 9.0) with regard to the untreated cells (control), where y0 – untreated cell control (which was set to 100% viability), y100 – a lysis control (where the cells were treated with 0.5% triton X-100 was set to 0% […]
Determined values of IC50 are given as mean + S.D. (Standard Deviation). […]

Data set [7] concerns MRC5. Description: MTT cytotoxicity assay (IC50). It counts as cell-based, human. The conditions noted are these: MRC5 normal cells, after 72 h incubation, MTT, vs untreated control cells; read-out: IC50. How it is done:
as §2, §3, §4, §5, §6
(§7) Cytotoxicity was assessed by MTT assay performed according the protocols described elsewhere.S1 In brief, 1×10^4 cells per well, seeded in 96-well flat bottom microtiter plate, were incubated with the tested compounds (in the appropriate media) at various range of concentrations for 24 h. After that time, solutions of compounds were washed out, cells were washed three times with PBS and fresh medium was applied. After next 72 h cell viability was determined using the Hill equation (Origin 9.0) with regard to the untreated cells (control), where y0 – untreated cell control (which was set to 100% viability), y100 – a lysis control (where the cells were treated with 0.5% triton X-100 was set to 0% […]
(§8) [c] at which the viability of the cells reaches 50%, H – the Hill coefficient (describing cooperativity):
(§9) Each compound concentration was tested in five replicates and repeated at least three times.
(§10) Determined values of IC50 are given as mean + S.D. (Standard Deviation).
(§11) Cisplatin was tested as a reference anticancer drug. […]

Data set [8] concerns A549. Description: MTT cytotoxicity assay (IC50). Format: cell-based, human. Particulars: A549, after 72 h incubation, MTT, vs untreated control cells; read-out: IC50. How it is done: as §2, §3, §4, §5, §6, §7, §8, §9, §10, §11
Data set [9] deals with PANC-1. The experiment in a line: MTT cytotoxicity assay (IC50). The conditions noted are these: PANC-1, after 72 h incubation, MTT, vs untreated control cells; read-out: IC50. Format: cell-based, human. How it is done: as §2, §3, §4, §5, §6, §7, §8, §9, §10, §11
Data set [10] has as its system MCF7. The experiment in a line: MTT cytotoxicity assay (IC50). Particulars: MCF7, after 72 h incubation, MTT, vs untreated control cells; read-out: IC50. It counts as cell-based, human. How it is done: as §2, §3, §4, §5, §6, §7, §8, §9, §10, §11
For data set [11], the system named is HaCat. The experiment in a line: MTT cytotoxicity assay (IC50). It counts as cell-based, human. Particulars: HaCat normal cells, after 72 h incubation, MTT, vs untreated control cells; read-out: IC50. How it is done: as §2, §3, §4, §5, §6, §7, §8, §9, §10, §11
The test system of data set [12] is DU-145. The experiment in a line: MTT cytotoxicity assay (IC50). Format: cell-based, human. Particulars: DU-145, after 72 h incubation, MTT, vs untreated control cells; read-out: IC50. How it is done:
as §2, §3, §4, §5, §6, §7, §8, §9, §10, §11

With `O=[N+]([O-])[O-].[Ag+]` [AgNO3, silver(I) nitrate], the surviving fraction is 68.1 ± 6.2% in [1] (A549, 6h + 24h, dil. 10 000x (stocks: diclofenac 0.918, PTA 0.483, AgNO3 0.326 mg/mL)); 48.9 ± 6.5% in [1] (A549, 6h + 24h, dil. 1000x (stocks: diclofenac 0.918, PTA 0.483, AgNO3 0.326 mg/mL)); 57.4 ± 3.8% in [1] (A549, 24h + 24h, dil. 10 000x (stocks: diclofenac 0.918, PTA 0.483, AgNO3 0.326 mg/mL)); 31.2 ± 5.5% in data set [1] (A549, 24h + 24h, dil. 1000x (stocks: diclofenac 0.918, PTA 0.483, AgNO3 0.326 mg/mL)); 55.8 ± 8.1% in data set [1] (A549, 72h + 24h, dil. 10 000x (stocks: diclofenac 0.918, PTA 0.483, AgNO3 0.326 mg/mL)); 34.1 ± 5.3% in data set [1] (A549, 72h + 24h, dil. 1000x (stocks: diclofenac 0.918, PTA 0.483, AgNO3 0.326 mg/mL)). Moreover, the surviving fraction in data set [2] (PANC-1, 6h + 24h, dil. 10 000x (stocks: diclofenac 0.918, PTA 0.483, AgNO3 0.326 mg/mL)) is 76.2 ± 7.4%; in [2] (PANC-1, 6h + 24h, dil. 1000x (stocks: diclofenac 0.918, PTA 0.483, AgNO3 0.326 mg/mL)) it was 65.89 ± 4.6%; in data set [2] (PANC-1, 24h + 24h, dil. 10 000x (stocks: diclofenac 0.918, PTA 0.483, AgNO3 0.326 mg/mL)), 65.8 ± 6.6%; in [2] (PANC-1, 24h + 24h, dil. 1000x (stocks: diclofenac 0.918, PTA 0.483, AgNO3 0.326 mg/mL)), 44.2 ± 9.2%; in data set [2] (PANC-1, 72h + 24h, dil. 10 000x (stocks: diclofenac 0.918, PTA 0.483, AgNO3 0.326 mg/mL)) it was 65.8 ± 6.1%; in data set [2] (PANC-1, 72h + 24h, dil. 1000x (stocks: diclofenac 0.918, PTA 0.483, AgNO3 0.326 mg/mL)), 55.4 ± 6.7%. Moreover, the surviving fraction worked out at 59.2 ± 8.2% in [3] (MCF-7, 6h + 24h, dil. 10 000x (stocks: diclofenac 0.918, PTA 0.483, AgNO3 0.326 mg/mL)); 62.7 ± 6.3% in data set [3] (MCF-7, 6h + 24h, dil. 1000x (stocks: diclofenac 0.918, PTA 0.483, AgNO3 0.326 mg/mL)); 62.1 ± 5.5% in [3] (MCF-7, 24h + 24h, dil. 10 000x (stocks: diclofenac 0.918, PTA 0.483, AgNO3 0.326 mg/mL)); 38.5 ± 7.3% in [3] (MCF-7, 24h + 24h, dil. 1000x (stocks: diclofenac 0.918, PTA 0.483, AgNO3 0.326 mg/mL)); 56.8 ± 6.2% in data set [3] (MCF-7, 72h + 24h, dil. 10 000x (stocks: diclofenac 0.918, PTA 0.483, AgNO3 0.326 mg/mL)); 36.0 ± 8.4% in data set [3] (MCF-7, 72h + 24h, dil. 1000x (stocks: diclofenac 0.918, PTA 0.483, AgNO3 0.326 mg/mL)). For the same compound, the surviving fraction in data set [4] (6h + 24h, dil. 10 000x (stocks: diclofenac 0.918, PTA 0.483, AgNO3 0.326 mg/mL)) worked out at 88.1 ± 4.2%; in data set [4] (6h + 24h, dil. 1000x (stocks: diclofenac 0.918, PTA 0.483, AgNO3 0.326 mg/mL)), 76.7 ± 6.8%; in data set [4] (24h + 24h, dil. 10 000x (stocks: diclofenac 0.918, PTA 0.483, AgNO3 0.326 mg/mL)) it was 72.7 ± 8.1%; in data set [4] (24h + 24h, dil. 1000x (stocks: diclofenac 0.918, PTA 0.483, AgNO3 0.326 mg/mL)), 41.6 ± 6.9%; in [4] (72h + 24h, dil. 10 000x (stocks: diclofenac 0.918, PTA 0.483, AgNO3 0.326 mg/mL)), 70.5 ± 5.8%; in data set [4] (72h + 24h, dil. 1000x (stocks: diclofenac 0.918, PTA 0.483, AgNO3 0.326 mg/mL)), 65.2 ± 6.3%. The surviving fraction came out at 74.5 ± 8.8% in data set [5] (Du-145, 6h + 24h, dil. 10 000x (stocks: diclofenac 0.918, PTA 0.483, AgNO3 0.326 mg/mL)); 62.87 ± 5.9% in data set [5] (Du-145, 6h + 24h, dil. 1000x (stocks: diclofenac 0.918, PTA 0.483, AgNO3 0.326 mg/mL)); 58.8 ± 7.3% in [5] (Du-145, 24h + 24h, dil. 10 000x (stocks: diclofenac 0.918, PTA 0.483, AgNO3 0.326 mg/mL)); 36.7 ± 7.1% in data set [5] (Du-145, 24h + 24h, dil. 1000x (stocks: diclofenac 0.918, PTA 0.483, AgNO3 0.326 mg/mL)); 56.1 ± 5.9% in data set [5] (Du-145, 72h + 24h, dil. 10 000x (stocks: diclofenac 0.918, PTA 0.483, AgNO3 0.326 mg/mL)); 42.8 ± 5.9% in data set [5] (Du-145, 72h + 24h, dil. 1000x (stocks: diclofenac 0.918, PTA 0.483, AgNO3 0.326 mg/mL)). The “cytotoxic effect of free Ag(I) salt” value in data set [6] is listed as “does not cause significant toxic effects”.

In the case of `N.N.[Cl][Pt][Cl]` [cisplatin], the IC50 – broadly, the concentration that inhibits the measured activity by half – is 31.5 ± 4.1 µM in [7]; greater than 100 µM in data set [8]; 12.5 ± 1.3 µM in data set [9]; 50.9 ± 7.6 µM in [10]; 26.4 ± 2.7 µM in data set [11]; greater than 100 µM in data set [12].
